Here are results for five molecules from patent US6423352B1 (priority 1998, dated 2002).

Assay type in all cases: in vivo
Assay [1] deals with Phytophthora infestans. To be noted: for % Protection, late blight in potato / Diseased leaf area, late blight in potato: Example 2; for Diseased leaf area, late blight in potato: recorded 4 days post inoculation, untreated control 98; for % diseased leaf area, late blight potato, 5 d: Example 17, none 100.
Assay [2] relates to Pseudoperonospora cubensis. Description: downy mildew in cucumber: sprayed plants inoculated, disease recorded. To be noted: Example 14; solvent conc. 1%; inoculation three hours after spray; none (control) 88. As to the method: (§1) To test the efficacy of these extracts and suspensions, experiments were performed in which plants were sprayed using a fine glass atomizer with either Inula extract or with pure solvent as a control for the Inula extracts, with either Inula extract and emulsifier or with an emulsifier solution as a control for the emulsified Inula extracts, and with either Inula suspension or with water or emulsifier solution as a control for the Inula suspensions. Treated and control plants were then inoculated with a crop-respective fungal pathogen. After an incubation period, the extent of the infection was measured. Unless otherwise stated, percentage protection from the disease due to the treatment with the Inula extract or suspension was calculated as:
(§2) % control of the disease=[1−(% infection and treated plants/% infection in control plants)]×100.
The crop plants and pathogens used for inoculation are described in the following list. […]
(§3) Disease records were visually estimated in the inoculated plants at 3-13 days after inoculation, depending on the crop and disease. Percentage leaf area occupied with disease symptoms or fungal colonies was recorded and given in the results section.

The subject of assay [3] is Phytophthora infestans. Conditions: for % diseased leaf area, late blight tomato, 5 d: Example 17, none 81; for % diseased leaf area, solvent control: Example 12, late blight in tomato, untreated control 81.
The test system of assay [4] is Erysiphe graminis tritici. In words: powdery mildew in wheat: sprayed plants inoculated, diseased leaf area recorded. Conditions: for % diseased leaf area, wheat powdery mildew, 10 d: Example 14, solvent conc. 1%, inoculation three hours after spray, none (control) 50; for % diseased leaf area, powdery mildew wheat, 8 d: Example 17, none 69. The procedure: as §1, §2
The crop plants and pathogens used for inoculation are described in the following list.
Inoculation with P. infestants, P. cubensis, P. tabacina, P. viticola, B. cinera and C. fulvum was done by spraying a spore suspension in distilled water onto the upper leaf surfaces of the treated (and the control) plants. Inoculated plants were kept in a dew chamber at 18-20° C. in the dark for 16-20 hours and then in a growth chamber at 20° C. with 12 hours photoperiod. Inoculation with E. graminis and S. fuliginea was done by blowing spores over the treated (and control) plants. Inoculated plants were then kept in a growth chamber as above.
as §3

Read-outs that look alike come from different tables or passages of the source.

Turning to `N.O` [NH4OH, ammonium hydroxide], the “% Protection, late blight in potato” value with Phytophthora infestans [1] (NH4OH 1%), in the assay with Phytophthora infestans [1] (NH4OH 2%), in the assay with Phytophthora infestans [1] (NH4OH 4%) and with Phytophthora infestans [1] (NH4OH 8% (= 2% aqueous NH3)) was 0% throughout. Moreover, the “Diseased leaf area, late blight in potato” value with Phytophthora infestans [1] (NH4OH 1%) was found to be 100; in the assay on Phytophthora infestans [1] (NH4OH 2%) it was 100; in the assay with Phytophthora infestans [1] (NH4OH 4%) it was 100; in the assay with Phytophthora infestans [1] (NH4OH 8% (= 2% aqueous NH3), inoculated 2 days after spray), 100.
As to tetraethylene, the “% diseased leaf area, cucumber downy mildew, 6 d” value in assay [2] is 31%. Also, the “% diseased leaf area, Tomato late blight, 4 d” value with Phytophthora infestans [3] (in vivo) is reported as 63%. The “% diseased leaf area, wheat powdery mildew, 10 d” value in assay [4] amounted to 50%.
As to `C1CCNCC1` [piperidine], the “% diseased leaf area, cucumber downy mildew, 6 d” value in assay [2] worked out at 94%. The “% diseased leaf area, Tomato late blight, 4 d” value in the assay with Phytophthora infestans [3] (Example 14, solvent conc. 1%, inoculation three hours after spray, none (control) 88) is recorded as 88%. Further, the “% diseased leaf area, wheat powdery mildew, 10 d” value in assay [4] came to 25%.
`c1c[nH]cn1` [Imidazole only, imidazole]: the “% diseased leaf area, late blight potato, 5 d” value was determined as 50% in the assay on Phytophthora infestans [1] (imidazole only 0.12% pH 9.55), 50% with Phytophthora infestans [1] (imidazole only 0.25% pH 9.70), 25% with Phytophthora infestans [1] (imidazole only 0.5% pH 9.86) and 18% in the assay on Phytophthora infestans [1] (imidazole only 1% pH 9.95). Moreover, the “% diseased leaf area, late blight tomato, 5 d” value with Phytophthora infestans [3] (imidazole only 0.12% pH 9.55) is reported as 95%; with Phytophthora infestans [3] (imidazole only 0.25% pH 9.70), 88%; with Phytophthora infestans [3] (imidazole only 0.5% pH 9.86) it was 69%; in the assay on Phytophthora infestans [3] (imidazole only 1% pH 9.95), 50%. The “% diseased leaf area, powdery mildew wheat, 8 d” value in assay [4] (imidazole only 0.12% pH 9.55) was found to be 63%; in assay [4] (imidazole only 0.25% pH 9.70) it was 50%; in assay [4] (imidazole only 0.5% pH 9.86), 23%; in assay [4] (imidazole only 1% pH 9.95), 25%.
With `C1CNCCN1.O` [piperazine hydrate], the “% diseased leaf area, solvent control” value in the assay with Phytophthora infestans [3] (solvent alone 0.05M) and in the assay on Phytophthora infestans [3] (solvent alone 0.1M) was 81% each time.
